Legend:
[1] = molecular target: T1, soluble guanylate cyclase (sGC) (Homo sapiens, UniProt Q02108+Q02153); experiment: sGC-HEK-cGMP assay; type: cell-based; conditions: HEK293 cells, 10 μM SNP, percentage of sGC activity obtained with positive control BAY 41-2272 (= 100%); for Emax at 10 µM: compound at 10 μM; for Emax at 30 µM: compound at 30 μM
T1 construct: endogenously expressing soluble guanylate cyclase (sGC); endogenous in cells; host or cells: HEK293
T1 sequence (Q02153 1-619): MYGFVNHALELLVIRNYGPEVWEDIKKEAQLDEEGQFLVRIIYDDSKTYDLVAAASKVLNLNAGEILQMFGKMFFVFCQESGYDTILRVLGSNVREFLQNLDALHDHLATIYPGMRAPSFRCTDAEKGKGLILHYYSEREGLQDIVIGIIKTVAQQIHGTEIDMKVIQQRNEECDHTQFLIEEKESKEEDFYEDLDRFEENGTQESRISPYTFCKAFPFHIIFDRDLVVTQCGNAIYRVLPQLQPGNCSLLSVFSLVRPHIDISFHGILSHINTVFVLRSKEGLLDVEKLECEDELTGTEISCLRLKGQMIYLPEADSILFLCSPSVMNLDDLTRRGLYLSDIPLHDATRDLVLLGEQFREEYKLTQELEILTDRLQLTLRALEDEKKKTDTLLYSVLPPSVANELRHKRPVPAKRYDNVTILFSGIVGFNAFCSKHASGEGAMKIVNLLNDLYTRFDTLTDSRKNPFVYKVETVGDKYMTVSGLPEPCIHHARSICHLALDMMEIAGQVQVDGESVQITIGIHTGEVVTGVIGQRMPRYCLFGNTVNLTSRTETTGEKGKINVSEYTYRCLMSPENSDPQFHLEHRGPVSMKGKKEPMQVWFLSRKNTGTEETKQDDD
T1 sequence (Q02108 1-690): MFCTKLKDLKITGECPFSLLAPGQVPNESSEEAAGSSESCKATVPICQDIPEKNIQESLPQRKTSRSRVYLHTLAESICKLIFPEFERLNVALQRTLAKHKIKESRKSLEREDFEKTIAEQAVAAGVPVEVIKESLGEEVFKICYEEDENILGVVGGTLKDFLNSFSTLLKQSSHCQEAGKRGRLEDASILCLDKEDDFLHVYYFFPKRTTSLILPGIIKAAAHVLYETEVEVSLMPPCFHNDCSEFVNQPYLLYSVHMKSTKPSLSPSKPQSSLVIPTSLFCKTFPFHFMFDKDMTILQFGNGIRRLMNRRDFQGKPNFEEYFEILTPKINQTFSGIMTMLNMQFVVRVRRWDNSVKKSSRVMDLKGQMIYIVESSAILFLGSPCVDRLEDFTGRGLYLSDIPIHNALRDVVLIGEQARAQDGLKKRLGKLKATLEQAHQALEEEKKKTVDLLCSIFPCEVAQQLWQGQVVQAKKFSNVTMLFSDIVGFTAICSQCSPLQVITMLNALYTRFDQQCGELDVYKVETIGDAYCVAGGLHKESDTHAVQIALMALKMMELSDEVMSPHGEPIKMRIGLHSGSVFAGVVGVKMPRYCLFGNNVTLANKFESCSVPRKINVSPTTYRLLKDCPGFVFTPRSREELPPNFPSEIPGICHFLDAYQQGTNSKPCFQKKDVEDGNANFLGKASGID
Experimental: Human embryonic kidney cells (HEK293), endogenously expressing soluble guanylate cyclase (sGC), were used to evaluate the activity of the test compounds. Compounds stimulating the sGC receptor should cause an increase in the intracellular concentration of cGMP. HEK 293 cells were seeded in Dulbecco's Modification of Eagle's Medium supplemented with fetal bovine serum (10% final) and L-glutamine (2 mM final) in a 200 μL volume at a density of 1×10^5 cells/well in a poly-D-lysine coated 96 well flat bottom plate and grown overnight at 37° C. Medium was aspirated and cells were washed with 1× Hank's Buffered Saline Salt Solution (200 μL). Cells were then incubated for 15 minutes at 37° C. with 0.5 mM 3-isobutyl-1-methylxanthine (200 μL). Test article was then added to the assay mixture (2 μL) and incubated in the presence of 10 μM Sodium Nitroprusside (SNP) at 37° C. for 10 minutes. After the 10 minute incubation, the assay mixture was aspirated and 0.1M HCl (200 μL) was added to the cells. The plate was incubated at 4° C. for 30 minutes in the 0.1M HCl to stop the reaction and lysed the cells. The plates were then centrifuged at 1,200 g for 5 minutes at room temperature. Supernatants were collected and transferred to a new flat bottom 96 well plate for analysis. Vehicle controls were carried out using DMSO (1%). A known sGC stimulator, BAY 41-2272, was used as the positive control.
Samples were diluted with an equal volume of 1 M Ammonium Acetate (pH 7) to neutralize samples for better chromatography. A 2×cGMP standard curve was prepared in 0.1 M HCl and then diluted with an equal volume of 1 M Ammonium Acetate, with the following final concentrations in nM: 1024, 512, 256, 128, 64, 32, 16, 8, 4, 2, 1.cGMP concentrations were determined from each sample using the LC/MS conditions (Table 2 below) and calculated standard curve. EC50 values were calculated from concentration-response curves generated with GraphPad Prism Software.
The biological activities of some of the compounds according to Formula IA or Formula IB determined with the sGC-HEK assay are summarized in Table 3 below.

[2] = molecular target: T2, Human soluble guanylate cyclase enzyme (hsGC) (Homo sapiens, UniProt Q02108+Q02153); experiment: Purified human sGC enzyme activity assay (with or without SNP); type: biochemical; conditions: 30 μM compound; for sGC Enzyme Activity Increase at 30 μM with SNP: 1 μM SNP, specific activity vs DMSO and SNP; for sGC Enzyme Activity Increase at 30 μM without SNP: specific activity vs DMSO control
T2 construct: purchased Enzo Inc. ALX-201-177
T2 sequence (Q02153 1-619): T1 sequence (Q02153 1-619)
T2 sequence (Q02108 1-690): T1 sequence (Q02108 1-690)
Experimental: Human soluble guanylate cyclase enzyme (hsGC) obtained from Enzo Inc. (P/N: ALX-201-177) was used to evaluate the activity of test compounds. The assay reactions contained 0.1 M Tris (pH 8.0), 0.5 mg/mL BSA (pH 8.0), 2 mM DTT, 2 mM MgCl2, 300 μM GTP, 1 mM 3-isobutyl-1-methylxanthine (IBMX) and 5 ng human soluble guanylate cyclase enzyme. Test compounds in DMSO were then added (2 μL, 10 or 30 μM final concentration) and incubated (200 μL, 96-well plate format) at 37° C. for 30 minutes. The controls were carried out using 2 μL DMSO. After the 30 minute incubation, the reaction was stopped with the addition of 200 μL of cold methanol. The plate was then centrifuged at 3,200 rpm for 10 minutes at room temperature. Supernatants (200 μL) were collected and transferred to a new 96 well plate for analysis.
An 8 point cGMP (Sigma-Aldrich P/N: G6129) standard curve was prepared in assay buffer ranging from 0.156-20 μM. Samples for the cGMP standard curve were then diluted with an equal volume of methanol resulting in final cGMP concentrations of 0.078-10 μM.
The cGMP standard curve was generated using GraphPad Prism Software.
Calculations: Specific Activity was determined by the amount of cGMP formed (nmoles) per mg of sGC per min. Enzyme activity “fold-change” was calculated by dividing the Specific Activity for a test compound by the Specific Activity of DMSO control.
The enzymatic activity fold-change of the purified human sGC enzyme determined in the presence of each of the test compounds individually at 10 or 30 μm without the addition of sodium nitroprusside (SNP), a nitric oxide donor, is presented in Table 5.
Enzyme assays were also performed as described above, but in the presence of 1 μM sodium nitroprusside (SNP). Enzymatic activity fold-changes are reported for selected test compounds in the presence of both SNP and the test compound. These were calculated by dividing the specific activity (activity increase) for the test compound dissolved in DMSO and SNP over the specific activity for the mixture of DMSO and SNP.

Structure (SMILES)	Emax at 10 µM [1]	Emax at 30 µM [1]	sGC Enzyme Activity Increase at 30 μM with SNP [2]	sGC Enzyme Activity Increase at 30 μM without SNP [2]
Fc1ccccc1Cn1nc(-c2ncccn2)nc1-c1ccco1 [Compound I-11]	10 to 20%	10 to 20%	C (C = 2 to <5 fold increase)	C (C = 2 to <5 fold increase)
Nc1cccc(-c2nc(-c3nccs3)n(Cc3ccccc3F)n2)n1 [Compound I-14, 6-(1-(2-fluorobenzyl)-5-(thiazol-2-yl)-1H-1,2,4-triazol-3-yl)pyridin-2-amine]	5 to 10%	10 to 20%	C (C = 2 to <5 fold increase)	B (B = 1 to <2 fold increase)
Fc1ccccc1Cn1nc(-c2nccs2)nc1-c1cccc(Br)n1 [Compound I-18, 2-(5-(6-bromopyridin-2-yl)-1-(2-fluorobenzyl)-1H-1,2,4-triazol-3-yl)thiazole]	0 to 5%	0 to 5%	C (C = 2 to <5 fold increase)	B (B = 1 to <2 fold increase)
Fc1ccccc1Cn1nc(-c2cccc(Br)n2)nc1-c1nccs1 [Compound I-19, 2-(3-(6-bromopyridin-2-yl)-1-(2-fluorobenzyl)-1H-1,2,4-triazol-5-yl)thiazole]	10 to 20%	0 to 5%	C (C = 2 to <5 fold increase)	B (B = 1 to <2 fold increase)
Fc1ccccc1Cn1nc(-c2ccccn2)nc1-c1ccccc1 [Compound I-2]	5 to 10%	5 to 10%	C (C = 2 to <5 fold increase)	D (D = 5 to <10 fold increase)
Fc1ccccc1Cn1nc(-c2cscn2)nc1-c1ncccn1 [Compound I-20]	0 to 5%	0 to 5%	B (B = 1 to <2 fold increase)	B (B = 1 to <2 fold increase)

Second part, the compound after the results:

Emax at 10 µM [1]	Emax at 30 µM [1]	sGC Enzyme Activity Increase at 30 μM with SNP [2]	sGC Enzyme Activity Increase at 30 μM without SNP [2]	Structure (SMILES)
0 to 5%	5 to 10%	C (C = 2 to <5 fold increase)	B (B = 1 to <2 fold increase)	Fc1ccccc1Cn1nc(-c2ccccn2)nc1-c1nnco1 [Compound I-42, 2-(1-(2-fluorobenzyl)-3-(pyridin-2-yl)-1H-1,2,4-triazol-5-yl)-1,3,4-oxadiazole]
20 to 40%	20 to 40%	E (E = 10 to <20 fold increase)	C (C = 2 to <5 fold increase)	Fc1ccccc1Cn1nc(-c2cc(Br)ccn2)nc1-c1cscn1 [Compound I-51, 4-(3-(4-bromopyridin-2-yl)-1-(2-fluorobenzyl)-1H-1,2,4-triazol-5-yl)thiazole]
0 to 5%	0 to 5%	B (B = 1 to <2 fold increase)	B (B = 1 to <2 fold increase)	Cc1nc(-c2ncccn2)nn1Cc1ccccc1F [Compound I-28]
0 to 5%	0 to 5%	B (B = 1 to <2 fold increase)	B (B = 1 to <2 fold increase)	Fc1ccccc1Cn1nc(-c2cocn2)nc1-c1ncccn1 [Compound I-45]
0 to 5%	0 to 5%	B (B = 1 to <2 fold increase)	B (B = 1 to <2 fold increase)	Nc1ccnc(-c2nc(-c3nccs3)nn2Cc2ccccc2F)c1 [Compound I-47]
0 to 5%	0 to 5%	C (C = 2 to <5 fold increase)	B (B = 1 to <2 fold increase)	Fc1ccccc1Cn1nc(-c2ccccn2)nc1-c1ncccn1 [Compound I-31]
80 to 100%	80 to 100%	E (E = 10 to <20 fold increase)	D (D = 5 to <10 fold increase)	Fc1ccccc1Cn1nc(-c2cc(N3CCOCC3)ccn2)nc1-c1nccs1 [Compound I-65, 4-(2-(1-(2-fluorobenzyl)-5-(thiazol-2-yl)-1H-1,2,4-triazol-3-yl)pyridin-4-yl)morpholine]
10 to 20%	20 to 40%	D (D = 5 to <10 fold increase)	B (B = 1 to <2 fold increase)	COC(=O)Nc1c(N)nc(-c2nc(-c3nccs3)n(Cc3ccccc3F)n2)nc1N [Compound I-60, methyl 4,6-diamino-2-(1-(2-fluorobenzyl)-5-(thiazol-2-yl)-1H-1,2,4-triazol-3-yl)pyrimidin-5-ylcarbamate]
0 to 5%	0 to 5%	C (C = 2 to <5 fold increase)	B (B = 1 to <2 fold increase)	Fc1ccccc1Cn1nc(-c2nccs2)nc1-c1ncccn1 [Compound I-29]

— US9061030B2, “sGC stimulators” (IRONWOOD PHARMACEUTICALS, INC., priority 2010, dated 2015)
